Literature values, collected in patent publication US8637323B2, “Fluorescent nitric oxide probes and associated methods” (Board of Regents, The University of Texas System, priority 2010, dated 2014).

Legend:
[1] = calculated with published photophysical parameters

In the case of CC(=O)Oc1ccc2c(c1)Oc1cc(OC(C)=O)ccc1C21OC(=O)c2cc(N)c(N)cc21 [DAF-2 DA], the fluorescence enhancement [1] is listed as “ca. 200 fold” and the “NO concentration giving a fluorescence signal comparable to 1 mM DHA” value is listed as about 300 nM.
